According to the supplement of paper PMC10307832:

Tests used:
Test in all cases: relative viability (nuclei count vs DMSO), 5 days (fraction); higher = more cells survive
Irinotecan = compound: CCc1c2c(nc3ccc(OC(=O)N4CCC(N5CCCCC5)CC4)cc13)-c1cc3c(c(=O)n1C2)COC(=O)[C@]3(O)CC [Irinotecan]
Procedure, shortened: (§1)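 Lung cancer cell lines received five library-drug doses (not always all listed) spaced by √10, pinned on vehicle-anchored 1536-well plates after an overnight stay at 37 °C. Five days later, with no medium change, nuclei were Hoechst-stained, imaged at 4× and counted with MetaXpress. Viability is treated-well nuclei relative to vehicle-well nuclei, as a median across plates. Passing plates had control CV below 25% and at least one doubling.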

RU-SKI 43 = compound: CC[C@@H](C)CNCC(=O)N1CCC2=C([C@@H]1COC3=CC=CC(=C3)C)C=CS2 [RU-SKI 43]
Procedure, shortened: as §1

MK-8033 = compound: Cn1cc(-c2cnc3ccc4ccc(CS(=O)(=O)NCc5ccccn5)cc4c(=O)c3c2)cn1 [MK-8033]
Procedure, shortened: as §1

RU-SKI 43 + Foretinib = compound: CC[C@@H](C)CNCC(=O)N1CCC2=C([C@@H]1COC3=CC=CC(=C3)C)C=CS2 [RU-SKI 43] + COc1cc2c(Oc3ccc(NC(=O)C4(C(=O)Nc5ccc(F)cc5)CC4)cc3F)ccnc2cc1OCCCN1CCOCC1 [Foretinib] (partner 0.25 µM)
Procedure, shortened: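 Relative viability divides the nuclei count in treated wells by that in vehicle wells. Lung cancer cell lines were seeded in 1536-well plates, dosed by pin tool the next day, and fixed and stained after 5 days in one step with final 0.05% Triton X-100, 1% formaldehyde and 1 ug/ml Hoechst. Dosing was a single drug or a fixed anchor-drug dose plus five library-drug doses (not always all listed) in √10 steps, and values are medians of duplicate plates imaged at 4×.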

Cell Line	relative viability (Irinotecan; 0.6325 µM)	relative viability (Irinotecan; 2 µM)	relative viability (Irinotecan; 6.325 µM)	relative viability (Irinotecan; 20 µM)	relative viability (RU-SKI 43; 0.1 µM)	relative viability (RU-SKI 43; 0.3162 µM)	relative viability (RU-SKI 43; 1 µM)	relative viability (RU-SKI 43; 3.162 µM)	relative viability (RU-SKI 43; 10 µM)	relative viability (MK-8033; 0.02 µM)	relative viability (MK-8033; 0.06325 µM)	relative viability (MK-8033; 0.2 µM)	relative viability (MK-8033; 0.6325 µM)	relative viability (MK-8033; 2 µM)	relative viability (RU-SKI 43 + Foretinib; first compound 0.1 µM)	relative viability (RU-SKI 43 + Foretinib; first compound 0.3162 µM)	relative viability (RU-SKI 43 + Foretinib; first compound 1 µM)	relative viability (RU-SKI 43 + Foretinib; first compound 3.162 µM)	relative viability (RU-SKI 43 + Foretinib; first compound 10 µM)
NCI-H1666	0.889	0.763	0.573	0.459	0.953	0.954	0.967	1.04	0.865	0.984	0.94	0.945	0.947	0.96	0.922	0.96	0.926	0.773	0.848
NCI-H460	0.74	0.556	0.142	0.0536	1.04	1.06	1.03	1.01	0.967	0.992	0.945	0.96	1.06	1.03	0.923	1.16	1.09	1.13	0.97
NCI-H2087	0.406	0.496	0.187	0.203	1.06	1.11	1.17	0.995	0.933	1.2	1.02	0.953	1.08	1.1	1.07	1.25	1.24	1.28	0.961
EKVX	0.711	0.804	0.504	0.261	0.873	0.971	0.977	0.994	0.965	0.993	0.858	0.906	0.935	1.03	0.735	0.712	0.876	0.719	0.499
IA-LM	0.616	0.419	0.208	0.0921	1.1	1.02	1.15	1.07	0.98	0.886	0.933	0.933	0.93	0.952	1.25	1.28	1.49	1.18	1.13
NCI-H1355	–	0.948	0.426	0.3	1.02	1.12	1.08	1.04	0.921	1.02	0.894	0.914	1.01	0.992	0.914	1.22	1.01	1.02	0.936
NCI-H661	1.05	0.838	0.52	0.454	0.92	1.05	1.06	0.99	0.943	0.994	0.849	1.01	1.01	0.993	1.01	1.29	1	1.09	0.894
PC-3 [JPC-3]	0.564	0.833	0.529	0.357	1.04	1.01	1.05	0.983	0.994	0.977	–	0.921	1.06	1	1.02	1.04	1.11	1.06	0.976
NCI-H2085	0.824	0.909	0.75	0.529	0.981	1.01	1.02	0.975	0.927	0.931	0.987	0.959	0.942	0.984	0.928	0.772	0.91	0.93	0.934
NCI-H1650	0.677	0.836	0.489	0.21	0.942	0.999	1.04	0.977	0.853	0.942	0.714	0.853	0.842	0.848	1.05	1.22	1.24	1.02	0.887
NCI-H1993	0.596	0.889	0.667	0.628	0.927	0.899	1.06	0.924	0.925	0.925	0.736	0.663	0.736	0.727	0.747	0.889	0.786	0.801	0.729
NCI-H2228	0.706	0.868	0.484	0.409	0.937	1.27	1.31	1.01	0.601	1.03	0.839	0.878	1.06	0.89	0.769	0.988	0.879	0.863	0.726
LK-2	1.04	0.956	0.486	0.282	1.09	1.13	1.31	1.22	1.06	0.992	0.885	0.92	1.01	1.09	1.28	1.13	1.27	1.46	1.05
LC-2-ad	0.47	0.492	0.299	0.191	0.967	1.02	1.16	0.963	0.932	0.953	0.938	0.936	1	0.927	0.929	0.922	0.908	1.02	0.838
NCI-H596	0.889	1.07	0.914	0.643	0.945	0.965	1.01	0.963	0.983	0.918	0.838	0.971	0.983	1.04	0.955	0.676	0.886	0.989	0.931
LCLC-97TM1	0.39	0.454	0.173	0.167	1.13	0.972	1.05	0.973	0.838	1.05	0.927	0.795	0.999	0.975	0.945	0.938	1.05	1	1.04
